Source: patent US20170073337A1, “DIHYDROTHIAZINE AND DIHYDROOXAZINE DERIVATIVES HAVING BACE1 INHIBITORY ACTIVITY” (Shionogi & Co., Ltd., priority 2014, published 2017)

Legend:
[1] = tested on: Aβ production in neuroblastoma SH-SY5Y cells (SH/APPwt); experiment: β-amyloid (Aβ) production inhibitory effect in cell: 384-well; type: cell-based; details: Homo sapiens, Assay format 384-well
Method in brief: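 Aβ1-40 secreted by SH/APPwt neuroblastoma cells was quantified by HTRF (overnight, 4 °C, light-protected; emission 620/665 nm). Cells were exposed to compound from seeding for 21 h at 1% final DMSO.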

[2] = target: T1, P-gp (MDR1 expressing LLC-PK1 cells) (Homo sapiens, UniProt P08183); experiment: P-gp substrate test; type: in vitro ADME; details: net flux = Efflux Ratio in MDR1 expressing cells / Efflux Ratio in parent LLC-PK1 cells
T1 construct: host or cells: LLC-PK1
Method: • 1. Cell line: • a. MDR/LLC-PK1 (Becton Dickinson) • b. LLC-PK1 (Becton Dickinson) • 2. Reference substrates: • a Digoxin (2 μM)
1. […] After incubation for designed time at 37° C., an aliquot (50 μL) of transport buffer in the donor and receiver side were collected. Assay was performed by duplicate or triplicate. 3. Reference substrate and the present invention in the aliquot was quantified by LC/MS/MS.
Pc(cm/sec)−Permeated amount (pmol)/area of cell membrane (cm2)/initial concentration (nM)/incubation time (sec)
The efflux ratio was calculated using the following equation:
Efflux Ratio=Basolateral-to-Apical Pe/Apical-to-Basolateral Pe
The net flux was calculated using the following equation
Net flux=Efflux Ratio in MDK1 expressing cells/Efflux Ratio in parent cells

CYP2C9 = target: T2, CYP2C9 (Homo sapiens, UniProt P11712); experiment: CYP inhibition test (CYP2C9); type: in vitro ADME; details: pooled human liver microsomes; tolbutamide methyl-hydroxylation
T2 construct: The commercially available pooled human liver microsomes are used as an enzyme resource; from tissue; host or cells: pooled human liver microsomes
Method in brief: (§1)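 Metabolite formation was quantified by LC/MS/MS: dextrorphan (2D6, 5 μmol/L dextromethorphan), terfenadine alcohol (3A4, 1 μmol/L terfenadine), 4′-hydroxymephenytoin (2C19, 50 μmol/L S-mephenytoin) and hydroxytolbutamide (2C9, 100 μmol/L tolbutamide). Reactions used NADPH-started pooled human liver microsomes (0.2 mg/mL) at 37 °C with compound at 1–20 μmol/L (four points). IC50 was calculated by logistic model relative to the DMSO control.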

CYP2D6 = target: T3, CYP2D6 (Homo sapiens, UniProt P10635); experiment: CYP inhibition test (CYP2D6); type: in vitro ADME; details: pooled human liver microsomes; dextromethorphan O-demethylation
T3 construct: The commercially available pooled human liver microsomes are used as an enzyme resource; from tissue; host or cells: pooled human liver microsomes
Method in brief: as §1

T3 sequence (P10635 whole entry): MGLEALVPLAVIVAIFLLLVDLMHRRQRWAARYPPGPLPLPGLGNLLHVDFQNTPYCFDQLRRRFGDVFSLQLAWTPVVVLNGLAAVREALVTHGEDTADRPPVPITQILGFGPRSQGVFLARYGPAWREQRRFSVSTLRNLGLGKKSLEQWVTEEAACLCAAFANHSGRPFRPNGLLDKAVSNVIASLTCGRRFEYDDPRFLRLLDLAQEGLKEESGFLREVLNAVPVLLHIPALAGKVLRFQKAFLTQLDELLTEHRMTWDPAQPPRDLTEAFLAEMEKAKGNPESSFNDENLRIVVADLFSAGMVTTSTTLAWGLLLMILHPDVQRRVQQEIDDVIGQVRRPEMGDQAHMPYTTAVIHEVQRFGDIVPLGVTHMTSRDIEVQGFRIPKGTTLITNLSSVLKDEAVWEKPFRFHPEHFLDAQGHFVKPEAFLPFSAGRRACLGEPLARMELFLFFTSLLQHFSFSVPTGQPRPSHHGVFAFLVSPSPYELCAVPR
T2 sequence (P11712 whole entry): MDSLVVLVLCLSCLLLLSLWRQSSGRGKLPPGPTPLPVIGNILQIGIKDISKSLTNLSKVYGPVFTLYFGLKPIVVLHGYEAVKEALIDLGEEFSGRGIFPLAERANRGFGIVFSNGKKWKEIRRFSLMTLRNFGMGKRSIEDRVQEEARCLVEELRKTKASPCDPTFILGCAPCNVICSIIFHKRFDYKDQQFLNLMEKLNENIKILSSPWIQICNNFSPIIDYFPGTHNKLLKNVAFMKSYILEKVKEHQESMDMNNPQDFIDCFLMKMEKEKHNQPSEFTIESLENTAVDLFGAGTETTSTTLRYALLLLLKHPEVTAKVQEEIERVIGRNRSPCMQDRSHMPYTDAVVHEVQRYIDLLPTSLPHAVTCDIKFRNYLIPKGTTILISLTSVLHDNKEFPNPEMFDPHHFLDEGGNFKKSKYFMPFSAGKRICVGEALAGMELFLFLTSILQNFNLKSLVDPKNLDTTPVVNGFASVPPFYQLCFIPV
T1 sequence (P08183 whole entry): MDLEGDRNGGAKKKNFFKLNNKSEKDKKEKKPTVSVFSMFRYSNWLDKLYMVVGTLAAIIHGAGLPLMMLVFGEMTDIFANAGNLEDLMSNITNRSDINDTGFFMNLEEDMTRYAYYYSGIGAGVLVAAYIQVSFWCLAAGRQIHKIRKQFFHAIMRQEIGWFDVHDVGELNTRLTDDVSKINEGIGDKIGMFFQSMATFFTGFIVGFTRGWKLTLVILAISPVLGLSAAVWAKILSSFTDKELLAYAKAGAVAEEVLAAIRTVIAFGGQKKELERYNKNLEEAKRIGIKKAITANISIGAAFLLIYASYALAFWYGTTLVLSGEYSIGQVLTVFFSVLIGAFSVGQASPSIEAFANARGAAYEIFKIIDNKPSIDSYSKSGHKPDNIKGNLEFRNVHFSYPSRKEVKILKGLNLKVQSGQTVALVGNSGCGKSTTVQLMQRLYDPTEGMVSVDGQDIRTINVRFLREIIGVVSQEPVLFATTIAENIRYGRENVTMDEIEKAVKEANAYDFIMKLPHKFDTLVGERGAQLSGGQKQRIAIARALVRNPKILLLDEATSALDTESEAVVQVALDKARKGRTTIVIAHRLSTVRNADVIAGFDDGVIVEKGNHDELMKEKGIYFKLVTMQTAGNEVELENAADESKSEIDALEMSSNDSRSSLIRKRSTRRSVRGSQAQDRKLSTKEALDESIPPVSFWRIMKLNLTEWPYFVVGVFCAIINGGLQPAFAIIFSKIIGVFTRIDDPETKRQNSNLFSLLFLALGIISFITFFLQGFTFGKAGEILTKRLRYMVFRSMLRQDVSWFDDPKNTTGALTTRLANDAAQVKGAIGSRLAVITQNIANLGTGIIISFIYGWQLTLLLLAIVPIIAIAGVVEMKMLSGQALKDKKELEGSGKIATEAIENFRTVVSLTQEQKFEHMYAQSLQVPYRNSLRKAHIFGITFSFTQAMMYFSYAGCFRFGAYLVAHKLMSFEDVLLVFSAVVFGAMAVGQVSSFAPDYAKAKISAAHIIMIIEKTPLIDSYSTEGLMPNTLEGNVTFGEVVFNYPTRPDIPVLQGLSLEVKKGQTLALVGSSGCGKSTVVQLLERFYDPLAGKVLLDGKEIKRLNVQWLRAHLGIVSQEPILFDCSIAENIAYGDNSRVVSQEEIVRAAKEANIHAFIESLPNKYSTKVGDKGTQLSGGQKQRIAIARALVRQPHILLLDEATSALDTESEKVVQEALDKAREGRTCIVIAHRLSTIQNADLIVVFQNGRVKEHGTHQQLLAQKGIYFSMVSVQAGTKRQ

| Structure (SMILES) | IC50 [1] | ER ratio (Cell: MDR1/LLC-PK1) [2] | IC50 (CYP2C9) | IC50 (CYP2D6) |
| --- | --- | --- | --- | --- |
| COC[C@H]1SC(N)=N[C@](C)(c2cc(NC(=O)c3cnc(OCF)cn3)ccc2F)[C@H]1F [Compound I-91] | 0.25 nM | 1.5 | – | – |
| CC(F)(F)[C@H]1OC(N)=N[C@](C)(c2cc(NC(=O)c3cnc(OCC(F)F)cn3)ccc2F)[C@H]1F [Compound I-77] | 79 nM | 1.2 | ≥ 10 µM | – |
| C[C@H]1SC(N)=N[C@](C)(c2cc(NC(=O)c3cnc(OCC(F)F)cn3)ccc2F)[C@H]1F [Compound I-48] | 5.4 nM | 1.1 | – | ≥ 10 µM |
| C[C@]1(c2cc(NC(=O)c3cnc(OCF)cn3)ccc2F)N=C(N)O[C@H](C(F)(F)C2CC2)[C@@H]1F [Compound I-82] | 17 nM | 0.96 | – | – |
| C[C@]1(c2cc(NC(=O)c3cnc(OCF)cn3)ccc2F)N=C(N)S[C@H](CO)[C@@H]1F [Compound I-109] | 0.45 nM | 8.5 | – | – |
| C[C@H]1SC(N)=N[C@](C)(c2cc(NC(=O)c3cnc(C(F)F)cn3)ccc2F)[C@H]1F [Compound I-65] | 1.1 nM | 1.1 | – | – |
| C[C@H]1SC(N)=N[C@](C)(c2cc(NC(=O)c3ccc(F)cn3)ccc2F)C12CC(F)(F)C2 [Compound I-63] | 5.4 nM | – | ≥ 10 µM | – |
| CC(F)(F)[C@H]1OC(N)=N[C@](C)(c2cc(NC(=O)c3ccc(C#N)cn3)ccc2F)[C@H]1F [Compound I-40] | 6 nM | 1.1 | ≥ 20 µM | ≥ 20 µM |
| C[C@H]1SC(N)=N[C@](C)(c2cc(NC(=O)c3cnc(OCC(F)(F)F)cn3)ccc2F)[C@H]1F [Compound I-46] | 2.4 nM | 1.5 | – | ≥ 10 µM |
| C[C@H]1SC(N)=N[C@](C)(c2cc(NC(=O)c3ncc(OCC(F)(F)F)cn3)ccc2F)[C@H]1F [Compound I-53] | 0.89 nM | – | – | ≥ 20 µM |
| COc1cnc(C(=O)Nc2ccc(F)c([C@@]3(C)N=C(N)O[C@H](C(F)F)[C@@H]3C)c2)cn1 [Compound I-86] | 2.21 nM | 1.5 | ≥ 20 µM | – |
| COc1cnc(C(=O)Nc2ccc(F)c([C@@]3(C)N=C(N)O[C@H](C(C)(F)F)[C@@H]3F)c2)cn1 [Compound I-42] | 21 nM | 1.5 | – | – |
| COc1ccc(C(=O)Nc2ccc(F)c([C@@]3(C)N=C(N)S[C@H](C)[C@@H]3F)c2)nc1 [Compound I-50] | 0.39 nM | 1.1 | – | – |
| COc1cnc(C(=O)Nc2cccc([C@@]3(C)N=C(N)S[C@H](C)[C@@H]3F)c2)cn1 [Compound I-103] | 2.1 nM | 1.4 | ≥ 10 µM | ≥ 20 µM |
| CO[C@H]1[C@@H](C)SC(N)=N[C@]1(C)c1cc(NC(=O)c2ccc(C#N)cn2)ccc1F [Compound I-88] | 0.13 nM | – | ≥ 20 µM | ≥ 20 µM |
| CC[C@H]1SC(N)=N[C@](C)(c2cc(NC(=O)c3cnc(OCF)cn3)ccc2F)[C@H]1F [Compound I-66] | 0.13 nM | 0.6 | – | – |
| C[C@]1(c2cc(NC(=O)c3ccc(C#N)cn3)ccc2F)N=C(N)SCC12CC(F)(F)C2 [Compound I-59] | 0.058 nM | 1.2 | ≥ 20 µM | – |
| CC#CCOc1cnc(C(=O)Nc2ccc(F)c([C@@]3(C)N=C(N)O[C@H](C(C)(F)F)[C@@H]3F)c2)cn1 [Compound I-76] | 1.6 nM | 1 | – | – |
| C[C@]1(c2cc(NC(=O)c3ccc(C#N)cn3)ccc2F)N=C(N)O[C@H](C2(F)CC2)[C@@H]1F [Compound I-96] | 1.8 nM | 2.0 | ≥ 10 µM | ≥ 20 µM |
| CO[C@H]1[C@@H](C)SC(N)=N[C@]1(C)c1cc(NC(=O)c2cnc(OCF)cn2)ccc1F [Compound I-87] | 0.66 nM | 3.4 | ≥ 20 µM | ≥ 20 µM |
| C[C@H]1SC(N)=N[C@](C)(c2cc(NC(=O)c3cnc(OCC4CC4)cn3)ccc2F)[C@H]1F [Compound I-85] | 4.8 nM | – | – | ≥ 20 µM |
| C[C@H]1SC(N)=N[C@](C)(c2cccc(NC(=O)c3cnc(C(F)F)cn3)c2)[C@H]1F [Compound I-106] | 2.6 nM | 1.9 | ≥ 20 µM | ≥ 20 µM |
| COc1cnc(C(=O)Nc2ccc(F)c([C@@]3(C)N=C(N)S[C@H](C)[C@@H]3OC)c2)cn1 [Compound I-90] | 0.51 nM | 3.1 | ≥ 20 µM | ≥ 20 µM |
| C[C@H]1SC(N)=N[C@](C)(c2cc(NC(=O)c3cnc(OC(F)F)cn3)ccc2F)[C@H]1F [Compound I-47] | 1.2 nM | 1.3 | – | – |

The remaining molecules from weak to strong by IC50 [1], led by results:

| IC50 [1] | ER ratio (Cell: MDR1/LLC-PK1) [2] | IC50 (CYP2C9) | IC50 (CYP2D6) | Structure (SMILES) |
| --- | --- | --- | --- | --- |
| 21 nM | – | ≥ 10 µM | – | C[C@]1(c2cc(NC(=O)c3ccc(C#N)cn3)ccc2F)N=C(N)O[C@H](C(F)(F)C2CC2)[C@@H]1F [Compound I-81] |
| 15 nM | 1.4 | – | – | C[C@H]1[C@@H](C(F)(F)F)OC(N)=N[C@]1(C)c1cc(NC(=O)c2cnc(OCF)cn2)ccc1F [Compound I-41] |
| 14 nM | – | – | – | COc1cnc(C(=O)Nc2ccc(F)c([C@@]3(C)N=C(N)O[C@H](C(F)(F)C4CC4)[C@@H]3F)c2)cn1 [Compound I-83] |
| 11 nM | 1.1 | – | – | C[C@]1(c2cc(NC(=O)c3ccc(OCF)cn3)ccc2F)N=C(N)O[C@H](C2(F)CC2)[C@@H]1F [Compound I-101] |
| 8.8 nM | 1.4 | – | ≥ 10 µM | COc1ccc(C(=O)Nc2ccc(F)c([C@@]3(C)N=C(N)S[C@H](C)[C@@H]3F)c2)nn1 [Compound I-108] |
| 8.3 nM | 0.8 | ≥ 10 µM | – | CC(F)(F)[C@H]1OC(N)=N[C@](C)(c2cc(NC(=O)c3cnc(OCC(F)(F)F)cn3)ccc2F)[C@H]1F [Compound I-75] |
| 4.5 nM | 1.7 | ≥ 10 µM | – | COCC(F)(F)[C@H]1OC(N)=N[C@](C)(c2cc(NC(=O)c3cnc(OCF)cn3)ccc2F)[C@H]1F [Compound I-79] |
| 2 nM | – | – | ≥ 10 µM | CC[C@H]1SC(N)=N[C@](C)(c2cc(NC(=O)c3ccc(F)cn3)ccc2F)[C@H]1F [Compound I-70] |
| 1.5 nM | – | ≥ 20 µM | ≥ 20 µM | CO[C@H]1[C@@H](C)SC(N)=N[C@]1(C)c1cc(NC(=O)c2ccc(F)cn2)ccc1F [Compound I-89] |
| 0.99 nM | 1.1 | – | ≥ 20 µM | C[C@H]1SC(N)=N[C@](C)(c2cc(NC(=O)c3ccc(F)cn3)ccc2F)[C@H]1F [Compound I-116] |
| 0.56 nM | 0.9 | – | – | CC[C@H]1SC(N)=N[C@](C)(c2cc(NC(=O)c3ccc(OCF)cn3)ccc2F)[C@H]1F [Compound I-67] |
| 0.54 nM | 0.92 | ≥ 20 µM | – | COc1cnc(C(=O)Nc2ccc(F)c([C@@]3(C)N=C(N)O[C@H]([C@@H](C)F)[C@@H]3F)c2)cn1 [Compound I-71] |
| 0.49 nM | 1.4 | ≥ 10 µM | ≥ 20 µM | C[C@H]1SC(N)=N[C@](C)(c2cccc(NC(=O)c3cnc(OCF)cn3)c2)[C@H]1F [Compound I-104] |
| 0.42 nM | 2.1 | – | ≥ 20 µM | Cc1cc(C#N)cnc1C(=O)Nc1ccc(F)c([C@@]2(C)N=C(N)S[C@H](C)[C@@H]2F)c1 [Compound I-52] |
| 0.41 nM | 0.56 | – | – | C[C@H]1SC(N)=N[C@](C)(c2cc(NC(=O)c3ccc(OCF)cn3)ccc2F)[C@H]1F [Compound I-51] |
| 0.3 nM | 0.9 | ≥ 20 µM | – | COc1cnc(C(=O)Nc2ccc(F)c([C@@]3(C)N=C(N)SCC34CC(F)(F)C4)c2)cn1 [Compound I-55] |
| 0.25 nM | 0.7 | ≥ 10 µM | – | C[C@H]1SC(N)=N[C@](C)(c2cc(NC(=O)c3cnc(OCF)cn3)ccc2F)C12CC(F)(F)C2 [Compound I-62] |
| 0.22 nM | 3.2 | – | ≥ 20 µM | C[C@H]1SC(N)=N[C@](C)(c2cc(NC(=O)c3ncc(C#N)cc3Cl)ccc2F)[C@H]1F [Compound I-64] |
| 0.025 nM | – | ≥ 10 µM | ≥ 20 µM | C[C@H]1SC(N)=N[C@](C)(c2cc(NC(=O)c3coc(CF)n3)ccc2F)[C@H]1F [Compound I-49] |
